Data as given in patent US9402826B2, “Neuronal pain pathway modulators” (The Trustees of Columbia University in the City of New York, priority 2006, dated 2016).
Where two headings read alike, the source gives them in different places.

What was measured:
PKG = molecular target: T1, PKG (Homo sapiens, UniProt Q13976); experiment: PKG inhibition: transfer of gamma-32P from ATP to peptide substrate; assay type: biochemical
T1 sequence (Q13976 1-671): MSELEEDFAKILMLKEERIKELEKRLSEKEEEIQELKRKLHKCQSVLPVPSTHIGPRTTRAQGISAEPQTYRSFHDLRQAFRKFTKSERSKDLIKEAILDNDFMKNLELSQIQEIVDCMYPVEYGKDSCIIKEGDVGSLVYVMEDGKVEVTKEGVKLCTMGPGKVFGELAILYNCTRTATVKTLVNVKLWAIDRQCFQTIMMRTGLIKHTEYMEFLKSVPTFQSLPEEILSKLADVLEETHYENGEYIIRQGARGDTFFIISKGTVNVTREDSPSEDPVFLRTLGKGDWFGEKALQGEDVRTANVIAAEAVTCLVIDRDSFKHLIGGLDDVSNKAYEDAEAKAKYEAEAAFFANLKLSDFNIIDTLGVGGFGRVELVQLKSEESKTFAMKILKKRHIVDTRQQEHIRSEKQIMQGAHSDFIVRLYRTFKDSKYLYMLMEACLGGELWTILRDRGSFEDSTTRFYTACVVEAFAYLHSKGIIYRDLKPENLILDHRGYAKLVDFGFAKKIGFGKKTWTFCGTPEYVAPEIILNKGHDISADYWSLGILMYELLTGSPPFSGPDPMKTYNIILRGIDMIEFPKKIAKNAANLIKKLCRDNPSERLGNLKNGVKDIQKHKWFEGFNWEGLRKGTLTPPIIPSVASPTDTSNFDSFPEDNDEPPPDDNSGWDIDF

PKA [1] = molecular target: T2, PKA (Homo sapiens, UniProt P17612); experiment: PKA inhibition; assay type: biochemical; settings: for difference of IC50 for PKA versus PKG: PKA IC50 relative to PKG IC50
rats [2] = settings: intrathecal, after induction of an inflammatory response, 10 and 60 minutes later; cited from earlier work
PKC isoforms = settings: Series B, Table 2; read-out: IC50 PKC isoforms from literature; cited from earlier work
PKA [3] = molecular target: T2, PKA; settings: cited from earlier work
[4] = system: CFA-induced thermal hyperalgesia in the hindpaws of rats; experiment: CFA-induced thermal hyperalgesia, hindpaw withdrawal latency; assay type: in vivo; settings: rat; for Effectiveness: 24 hours after CFA injection
Description: Both compounds were further tested for their efficacy in reducing complete Freund's adjuvant (CFA)-induced thermal hyperalgesia in the hindpaws of rats. The hindpaws of rats were first tested for their response to a thermal probe as a baseline reference. Then the right hindpaw was injected with CFA (100 μl). The injected site developed edema and redness, indicating an inflammatory reaction, within 12 hours. […] The rats were then given either compound 6 or 46 at different times after CFA injection via different routes as shown in the tables below. Each hindpaw was then tested for its response to a thermal stimulus on successive days.

rats [5] = experiment: Behavioural and motor observation of treated rats; assay type: in vivo; settings: rat; eating, sleeping, defecating, micturation, balance, exploring, socialization
Description: Modification of compound 6 to increase affinity and selectivity, and perhaps plasma half-life, as described above, will be important. […] For example, the animals had difficulty in changing from the supine to prone positions. […] The effects lasted for at least 24 hours and disappeared after 3 days.

[6] = Activity: IC50 vrs PKG, Series B, 30 μM ATP
[7] = Table 4, read-out: PKA inhibition (IC50)

## O=C(NC1CCCC1OC(=O)c1cc(O)c(C(=O)c2c(O)cccc2C(=O)O)c(O)c1)c1ccc(O)cc1 (stereo not shown) [Compound B-1, reference compound]
PKG; [6]
  IC50: 7 to 8 nM
PKG; PKG activity (IC50), Table 1
  IC50: 7 to 8 nM
PKG; PKG inhibition (IC50), Table 3
  IC50: 7 nM
PKA [1]
  difference of IC50 for PKA versus PKG: 3 fold

## O=C(Nc1ccccc1)Nc1ccc(C(=O)O[C@@H]2CCC[C@H]2NC(=O)c2ccc(O)cc2)cc1 (relative stereo) [Series A 11]
PKG; Series A, compounds at 10 μM, 30 μM ATP
  Activity (ability to inhibit PKG): no inhibition

## CCN(CC)CC.Nc1nc2c(nc(Sc3ccc(Cl)cc3)n2[C@@H]2O[C@@H]3COP(O)(=S)O[C@H]3[C@H]2O)c(=O)[nH]1 (stereo partly shown) [Rp-8-[4-chlorophenyl)thio]-cGMPS triethylamine]
Rats [2]
  effect on acute pain: significant attenuation of acute pain

## O=C(N[C@@H]1CNC[C@H]1NC(=O)c1ccc2[nH]ncc2c1)c1ccc(O)cc1 [Compound B-50]
PKG; IC50 (PKG), text b321
  IC50: 70 nM
PKA [1]; PKG versus PKA
  selectivity over PKA (in words): no selectivity over PKA
PKA [1]; Table 6, read-out: PKA inhibition (IC50)
  IC50: 70 nM

## O=C(OCc1ccccc1Cl)c1ccc(-c2ccc(O)cc2)cc1 [Compound 8J]
PKG; 10 μM compound, average of two independent experiments
  inhibition of PKG activity: weaker inhibition
PKG; 1 and 10 micromolar compound (FIGS. 10A-B)
  inhibitory activity on PKG (in words): significant inhibitory activity

## O=C(N[C@@H]1CNC[C@H]1NC(=O)c1ccc(O)cc1)c1ccc(O)cc1 [Compound B-48]
PKG
  PKG inhibitory activity (in words): moderate PKG inhibitory activity
PKG; Table 6, read-out: PKG inhibition (IC50)
  IC50: ~200 nM

## O=C(NC1CNCC1OC(=O)c1cc(O)c(C(=O)c2c(O)cccc2C(=O)O)c(O)c1)c1ccc(O)cc1 (stereo not shown) [Compound B-2, reference compound]
PKG
  reduction of PKG inhibition relative to balanol: 5 fold
PKG; [6]
  IC50: 7 nM
PKG; PKG activity (IC50), Table 1
  IC50: 7 nM
PKG; PKG inhibition (IC50), Table 3
  IC50: 7 nM
PKA [1]
  difference of IC50 for PKA versus PKG: 3 fold
PKC isoforms
  IC50: 4 to 33 nM
PKA [3]; read-out: IC50 PKA from literature, Series B, Table 2
  IC50: 70 nM
PKA [3]; read-out: PKA activity (IC50), Table 1, from Lai et al. 1997
  IC50: 4 to 33 nM
PKA [3]; read-out: PKA inhibition (IC50), Table 3, same values given as from literature in Table 2
  IC50: 70 nM

## O=C(NC1CNCCCC1OC(=O)c1cc(O)c(C(=O)c2c(O)cccc2C(=O)O)c(O)c1)c1ccc(O)cc1 (stereo not shown) [balanol, reference compound]
PKG; Table 3, read-out: PKG inhibition (IC50)
  IC50: 1.6 nM

## CCCOc1ccc(OC)c(F)c1C(=O)c1ccc(C(=O)OC2CNCC2NC(=O)c2ccc(O)cc2)cc1 (stereo not shown) [Compound B-21]
PKG; PKG inhibition (IC50), Table 4
  IC50: 200 nM
PKA [1]; [7]
  IC50: > 10000 nM

## COc1ccc(O)c(C(=O)c2ccc(C(=O)OC3CNCC3NC(=O)c3ccc(O)cc3)cc2)c1F (stereo not shown) [Compound B-7]
PKG; [6]
  IC50: 40 nM
PKG; PKG activity (IC50), Table 1
  IC50: 40 nM
PKG; PKG inhibition (IC50), Table 4
  IC50: 40 nM
PKA [1]
  difference of IC50 for PKA versus PKG: approximately the same IC50
PKA [1]; Series B, Table 2, read-out: Activity: IC50 vrs PKA
  IC50: 38 nM
PKA [1]; Table 1, read-out: PKA activity (IC50)
  IC50: 38 nM
PKA [1]; [7]
  IC50: 40 nM

## COCOc1ccc(OC)c(F)c1C(=O)c1ccc(C(=O)OC2CNCC2NC(=O)c2ccc(O)cc2)cc1 (stereo not shown) [Compound B-6]
PKG; [6]
  IC50: 40 nM
PKG; IC50 with PKG, Example 12
  IC50: 40 nM
PKG; PKG activity (IC50), Table 1
  IC50: 40 nM
PKG; PKG inhibition (IC50), Table 4
  IC50: 40 nM
PKA [1]; Example 12, read-out: IC50 with PKA
  IC50: 950 nM
PKA [1]
  difference of IC50 for PKA versus PKG: about 20 fold
PKA [1]; [7]
  IC50: 950 nM
[4]; 3.3 nmol, subcutaneous pump, 60 hours after CFA injection, 5 days later
  Effectiveness (recovery): >90%
[4]; 0.25 μM final CSF conc., intrathecal pump, 72 hours after CFA injection, 10 days
  Effectiveness (recovery): >50%
[4]; 25 μM final CSF conc., intrathecal pump, 6 days later
  Effectiveness: >90% 6 days
[4]; 82.5 μM final CSF conc., intrathecal single injection
  Effectiveness: No effect
[4]; doses and routes tested, preliminary results
  analgesic effects (in words): analgesic effects comparable to that achieved with the most potent commercially available inhibitor of PKG
[4]; single dose injection
  effect on thermal hyperalgesia: failed to reduce thermal hyperalgesia
Rats [5]
  adverse behavioral effects: did not exhibit any adverse behavioral effects
